Among the data in patent publication US20250127857A1, “A COMPOSITION COMPRISING IL-36 AND/OR IL-18 FOR USE IN TREATING OCULAR DISORDERS” (THE PROVOST, FELLOWS, FOUNDATION SCHOLARS, & THE OTHER …, priority 2021, published 2025) are VEGFR2 expression values, retold here.

For this test, the system named is VEGFR2. The test can be described thus: qPCR of VEGFR levels in HRMEC treated with IL-18. The test is classed as cell-based, human. The conditions noted are these: IL-18 100 ng/ml over timepoints. How it is done:
FIG. 15 illustrates IL-18 reduces expression of VEGFR2 specifically in Human retinal endothelial cells (HRMECs), wherein HRMECs were treated with IL-18 (100 ng/ml) over timepoints indicated, wherein cells lysates were prepared for RNA isolation and underwent qPCR and ddCt method to assess relative expression of VEGFR levels, using B-actin as reference control, wherein RT-PCR data are means±SEM of n=3 independent experiments;
Confluent HRMECs were stimulated with 50 or 100 ng/ml of recombinant human IL-18 (SB-485232; GSK); 10 ng/ml of human IL-1α (R&D systems) or 50 ng/ml of human VEGF165 (Peprotech) diluted in complete growth medium, with complete growth media added to wells alone for ‘no treatment’. […]
All RT-PCR assays were carried out using the SensiFAST SYBR Hi-ROX Kit (Bioline) with primers designed using Primer-BLAST (NCBI). […] Data were analysed using the QuantStudio™ Design & Analysis software (Applied Biosystems) and using the comparative Ct (ΔΔCt) method where test samples were normalised to endogenous control (β-Actin) followed by normalising the ΔCt of test samples to sample control (untreated sample), then calculating 2^−ΔΔCt to find the relative fold change of test samples over sample control.
(In qPCR the cycle at which signal appears reflects the starting amount.)

With “IL-18: recombinant human IL-18 (SB-485232; GSK)”, the VEGFR2 expression result is reported as “specifically reduces VEGFR2”.
